Test results: paper PMC4405350, “From Broad-Spectrum Biocides to Quorum Sensing Disruptors and Mussel Repellents: Antifouling Profile of Alkyl Triphenylphosphonium Salts” (PLoS ONE, 2015)

Experiments:
Assay type in all cases: cell-based
Fusarium sp. = assay: Marine-derived fungi growth inhibition (OD405); details: 5 days, 26 °C
Protocol: All the biological assays were run by triplicate.
(§1) Three strains of marine-derived fungi were kindly provided by Dr. Á. Trigos (University of Veracruz, Mexico). The strains were isolated from reef organisms collected from the Veracruz Reef System and identified as Aspergillus sp., Fusarium sp. and Alternaria sp..
(§2) Fungal strains were cultured in Potato-Dextrose Agar (PDA) supplemented with filtered seawater (FSW) (50% v/v) at 26 °C for 5 days prior to experiments. […] Briefly, fungal inocula were prepared by addition of 5 ml of sterile saline solution to the cultures. Gently swabbing released conidia. […] The plates were incubated for 5 days at 26 °C. The calculation of the half-maximal inhibitory concentrations (IC50) was performed using OD405 as endpoint.

Cylindrotheca sp. = assay: Benthic diatom growth inhibition (chlorophyll-a); details: growth, 5 days, chlorophyll-a; read-out: IC50 Cylindrotheca sp.
Protocol: (§3) All the biological assays were run by triplicate. […] For the active products, serial dilutions were performed to calculate the half-maximal inhibitory concentrations (IC50) or the minimal inhibitory concentrations (MIC). Unless otherwise stated, the test concentrations were 100, 50, 25, 10, 5, 2.5, 1, 0.5 and 0.1 μM. Dose-response curves were adjusted with GraphPad Prism 5 software using a four-parameter non-linear regression model.
(§4) Five strains of benthic diatoms, Nitszchia sp. […] The Nitzschia and Navicula strains were purchased from the Spanish Bank of Algae (Marine Biotechnology Center, University of Las Palmas de Gran Canaria). The other three strains were kindly provided by Dr. G. Courtois (University of Las Palmas de Gran Canaria). Diatoms were cultured at 19±1 °C in Erlenmeyer flaks (250 ml) containing 150 ml of Guillard’s F/2 medium, and subjected to a photoperiod of 18:6. Tests were run in 48-well plates. Inocula were prepared by adjusting diatom concentration to 2–4 × 10^6 cells ml^-1 using a Neubauer chamber. Test products were dissolved in F/2 medium (500 μl) to which diatom inocula (500 μl) were added. Thus, the final assay volume was 1 ml and the starting cell densities were ca. 1–2 x 10^6 diatoms ml^-1. Plates were incubated under the abovementioned conditions for 5 days and then chlorophyll-a (Chla) was quantified.
(§5) In order to extract Chla, the content of each well was transferred to a microcentrifuge tube and centrifuged at 10,000 rpm for 10 min. The supernatants were discarded and 200 μl of DMSO were added to the pellets. The tubes were incubated at 65 °C for 2 h in total darkness and vortexed every 30 min. Then, the content of each tube was transferred to a 96-well plate and the amount of Chla was determined spectrophotometrically. Path length correction factor for the DMSO extracts was determined.

Amphora sp. = assay: Benthic diatom growth inhibition (chlorophyll-a); details: growth, 5 days, chlorophyll-a; read-out: IC50 Amphora sp.
Protocol: as §3, §4, §5

[1] = test system: Navicula cf. salinicola BEA 0055; assay: Benthic diatom growth inhibition (chlorophyll-a); details: growth, 5 days, chlorophyll-a; read-out: IC50 Navicula cf. salinicola
Protocol: as §3, §4, §5

Nitzschia sp. = assay: Benthic diatom growth inhibition (chlorophyll-a); details: growth, 5 days, chlorophyll-a; read-out: IC50 Nitzschia sp.
Protocol: as §3, §4, §5

[2] = test system: Phaeodactylum tricornutum; assay: Benthic diatom growth inhibition (chlorophyll-a); details: growth, 5 days, chlorophyll-a; read-out: IC50 P. tricornutum
Protocol: as §3, §4, §5

[3] = test system: Pseudoalteromonas atlantica CECT 579; assay: Marine bacteria growth inhibition (broth microdilution, OD625); details: growth inhibition, 24 h, 30 °C, three replicates; read-out: IC50 P. atlantica
Protocol: as §3
(§6) Growth inhibition was assessed in Marine Broth (Conda) according to CLSI guidelines for broth microdilution susceptibility testing. The incubation time was 24 h and the incubation temperature was 30 °C.

[4] = test system: Vibrio anguillarum CECT 4347; assay: as above; details: growth inhibition, 24 h, 30 °C, three replicates; read-out: IC50 V. anguillarum
Protocol: as §3, §6

[5] = test system: Cellulophaga lytica CECT 5014; assay: as above; details: growth inhibition, 24 h, 30 °C, three replicates; read-out: IC50 C. lytica
Protocol: as §3, §6

[6] = test system: Vibrio alginolyticus CECT 521; assay: as above; details: growth inhibition, 24 h, 30 °C, three replicates; read-out: IC50 V. alginolyticus
Protocol: as §3, §6

[7] = test system: Shewanella algae CECT 5021; assay: as above; details: growth inhibition, 24 h, 30 °C, three replicates; read-out: IC50 S. algae
Protocol: as §3, §6

Cobetia marina CECT 4278 = assay: as above; details: growth inhibition, 24 h, 30 °C, three replicates; read-out: IC50 C. marina
Protocol: as §3, §6

Aspergillus sp. = assay: Marine-derived fungi growth inhibition (OD405); details: growth inhibition, 5 days, 26 °C; read-out: IC50 Aspergillus sp.
Protocol: as §3, §1, §2

Alternaria sp. = assay: Marine-derived fungi growth inhibition (OD405); details: growth inhibition, 5 days, 26 °C; read-out: IC50 Alternaria sp.
Protocol: as §3, §1, §2

[8] = test system: Gayralia oxysperma spores; assay: Macroalgal spore germination inhibition; details: 6 days, 19±1 °C
Protocol: as §3
To evaluate the effect of the phosphonium salts on the germination of macroalgal spores, Gayralia oxysperma (Kützing) K.L.Vinogradova was selected as model organism. G. oxysperma (Ulotrichales, Chlorophyta) is a cosmopolitan member of the Ulvophyceae. Unlike Ulva species, which produce biflagellate male and female gametes, as well as quadriflagellate spores, G. oxysperma only produces biflagellate spores. This is an advantage as bioassays can be conducted straightforwardly without the need to distinguish between gamete-producing and zoospore-producing plants. […] Fresh fertile fragments were selected and placed in Petri dishes. Spores were then released in Von Stosch Solution (VSS) by the osmotic method. Bioassays were conducted in flat-bottom 96-well plates as described by Chambers and co-workers, with slight modifications. Each well was filled with 50 μl of the appropriate dilution of the products in VSS to which 50 μl of spore inoculum (ca. 2 x 10^5 spores ml^-1) were added. Plates were incubated at 19±1 °C for 6 days. After the incubation time, the bottom of each well was examined for the presence of germinated spores with an inverted microscope. A spore was considered as germinated when the germ tube was visible. The MIC was recorded as the lowest concentration inhibiting spore germination.

## bis-(tris-n-butyltin)oxide [TBTO, reference compound]
Fusarium sp.
  IC50: 6.7 µM
Cylindrotheca sp.
  IC50: 0.4 µM
Amphora sp.
  IC50: 5.7 µM
[1]
  IC50: 6.3 µM
Nitzschia sp.
  IC50: 2.8 µM
[2]
  IC50: 1.7 µM
[3]
  IC50: 46.6 µM
[4]
  IC50: 27.5 µM
[5]
  IC50: 0.5 µM
[6]
  IC50: 38.6 µM
[7]
  IC50: 6.4 µM
Cobetia marina CECT 4278
  IC50: 34.2 µM
Aspergillus sp.
  IC50: 3 µM
Alternaria sp.
  IC50: 0.6 µM
[8]
  MIC G. oxysperma (lowest concentration inhibiting spore germination): 5 µM
